This assay deals with T1, Adenosine receptor A1 (Homo sapiens) (UniProt P30542).
T1 sequence (whole entry): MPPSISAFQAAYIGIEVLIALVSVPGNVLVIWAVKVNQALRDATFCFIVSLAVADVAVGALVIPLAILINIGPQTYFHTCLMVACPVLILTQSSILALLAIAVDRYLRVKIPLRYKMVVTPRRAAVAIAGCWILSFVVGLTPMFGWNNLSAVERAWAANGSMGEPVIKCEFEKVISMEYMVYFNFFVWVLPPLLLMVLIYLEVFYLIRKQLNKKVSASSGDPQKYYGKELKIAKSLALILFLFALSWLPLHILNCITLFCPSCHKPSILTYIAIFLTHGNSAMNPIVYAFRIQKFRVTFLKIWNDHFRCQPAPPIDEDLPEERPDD
Nature of the assay: Binding affinity to recombinant human adenosine receptor A1 expressed in HEK293 cell membranes at 50 to 200 nM after 1 hr by FACS analysis relative to control. In general terms: Flow cytometry measures light scatter and fluorescence of single cells or particles in a stream.

This passage reports Activity results from ChEMBL document CHEMBL4261547, “Bitopic fluorescent antagonists of the A2A adenosine receptor based on pyrazolo[4,3-e][1,2,4]triazolo[1,5-c]pyrimidin-5-amine functionalized congeners” (Medchemcomm, 2017).

Consider `Nc1nc2c(cnn2CCCc2ccc(OCC(=O)NCCCCNC(=O)CCCCCNC(=O)COc3ccc(/C=C/C4=[N+]5C(=Cc6ccc(-c7cccs7)n6[B-]5(F)F)C=C4)cc3)cc2)c2nc(-c3ccco3)nn12`, for which the Activity is below 25%.
